Data reported in article PMC4728661, “Cancer Prevention and Health Benefices of Traditionally Consumed Borago officinalis Plants” (Nutrients, 2016).
Marks after values point to notes of the source that are not given here.

Columns and labels:
[1] = test system: D. melanogaster; experiment: Toxicity: survival of Drosophila larvae to emerged adults, simple and combined (H2O2) treatments; type: in vivo, Drosophila melanogaster
Description: Optimal fertile flies were anesthetized under CO2 narcotisation for cross selection and then placed in new vials for fertilization. After that, hybrid eggs from crossing were collected over an 8 h period and emerged larvae (72 ± 4 h later) were cleaned up for a few seconds in sterile distilled water to remove feeding medium rests. […] Bioactive compound concentrations were chosen on the basis of their known content in B. officinalis species. […] Larvae were fed on these media until pupation (about 48 h). After emergence, resulting adult flies were sacrificed under CO2 narcotisation and stored in a 70% ethanol solution in sterile water. […] The determination of Toxicity (T) of treatments in D. melanogaster was performed following this formula [39]: T = (N° of emerging individuals in treatment/N° of emerging individuals in the negative control) × 100(1) Differences in D. melanogaster survival between treatments at each concentration with respect to negative control were analyzed with a Chi-square test. This procedure was also performed for the analysis of each simple treatment with their correspondent combined treatment.

[2] = test system: D. melanogaster; experiment: Antigenotoxicity: SMART, combined treatments with H2O2 0.12 M; type: in vivo, Drosophila melanogaster; for Diagnosis, Small Single Spots 1–2 Cells m = 2: key: + (positive); − (negative); for Diagnosis, Total Spots m = 2: key: + (positive); − (negative)
Description: The D. melanogaster system was selected for the determination of the safety of B. officinalis consumption as a well-recognized method to analyze vegetable complex mixtures using SMART [31, 32]. This test was used in order to evaluate the genotoxic and antigenotoxic activity of B. officinalis leaves and petioles as well as their selected bioactive compounds [33]. This activity was measured by direct visualization of the occurrence of recessive mutations in the wing hairs of two different D. melanogaster strains. Flies from experiments carried these visible wing genetic markers: the flare (flr) strain […]) TM3, Bd^s and the multiple wing-hair (mwh) strain […] [35]. The marker flare (flr^3, 3_38.3) produces individual malformed hairs and the marker multiple wing hairs (mwh, 3_0.3) produces multiple hairs per cell. Larvae used in treatments come from two types of crosses: the standard cross with flr^3/TM3, Bd^S females mated to […] and the reciprocal cross. Optimal fertile flies were anesthetized under CO2 narcotisation for cross selection and then placed in new vials for fertilization. After that, hybrid eggs from crossing were collected over an 8 h period and emerged larvae (72 ± 4 h later) were cleaned up for a few seconds in sterile distilled water to remove feeding medium rests. […] Bioactive compound concentrations were chosen on the basis of their known content in B. officinalis species. […] Larvae were fed on these media until pupation (about 48 h). After emergence, resulting adult flies were sacrificed under CO2 narcotisation and stored in a 70% ethanol solution in sterile water. […] For the evaluation of genotoxic effects, the frequencies of spots per fly of each treated series were compared to the concurrent negative control for each class of mutational clone as well as between simple and combined treatments for the same concentration comparisons. […] A multiple-decision procedure was used to categorize results as positive, inconclusive or negative. Inconclusive and positive results were evaluated by the non-parametric U test of Mann, Whitney and Wilcoxon. The inhibition percentage (IP) of genotoxicity was calculated from the total frequencies of spots per wing, following this formula [42]: IP = (genotoxin alone - sample + genotoxin) × 100/(genotoxin alone)(2) Significant differences of IP for each treatment respect to the positive control were analyzed with a Chi-square test.

[3] = test system: HL-60 cells; experiment: Cytotoxicity: HL-60 growth/viability, Trypan Blue dye exclusion; type: cell-based, human; conditions: 0.03–1 mM, 72 h
Description: The human acute promyelocytic leukemia cell line HL-60 was routinely grown in suspension in RPMI medium (Invitrogen, Madrid, Spain) containing glutamine ([…], Sigma-Aldrich, St. Louis, MO, USA), antibiotics (100IU penicillin mL^−1 and 100 μg streptomycin mL^−1, Sigma-Aldrich) and supplemented with 10% heat-inactivated foetal bovine serum (Linus, Cultek, Madrid, Spain) and placed in an incubator (Shel Lab, Cornelious, OR, USA) with a 5% CO2 humidified atmosphere at 37 °C [36]. HL-60 cells were subcultured every 2–3 days to maintain logarithmic growth and they were allowed to grow for 48 h before use. Cultures were plated at a density of 12.5 × 10^4 cells mL^−1 in 40 mL culture flasks (25 cm^2). Cytotoxic activity was measured as growing inhibition or decreased viability on HL-60 cells following a previous protocol modified by us. […] Cells were counted after 72 h treatment. Tested concentrations were calculated according to those used for in vivo assays to equal the range of tested doses. Untreated cultures were used as negative control. Cell viability was determined by the Trypan Blue dye exclusion test. Cells were stained with an equal volume of Trypan Blue commercial solution (Sigma-Aldrich) and counted using a hemocytometer at room temperature under a light inverted microscope (AE30/31, Motic, Barcelona, Spain). Cytotoxic effect evaluation was determined after each culture incubation period, establishing a growth curve and determining IC50 values by regression analysis of the curves. Viability estimated regressions of leukemia cells are presented as a survival percentage with respect to controls at 72 h growth and plotted as mean viability ± standard error of at least three independent replicas for each treatment and concentration.

[4] = combined with 0.12 M H2O2, 0.16 mM SY
[5] = combined with 0.12 M H2O2, 0.32 mM SY
[6] = combined with 0.12 M H2O2, 0.63 mM SY
[7] = combined with 0.12 M H2O2, 1.26 mM SY

SMILES: COc1cc(C(=O)O)cc(OC)c1O [SY, syringic acid]
- Survival [1, 4]: 31.11 *^,‡ %
- Survival [1, 5]: 29.33 *^,‡ %
- Survival [1, 6]: 20.44 *^,‡ %
- Survival [1, 7]: 36.89 *^,‡ %
- Survival ([1]; simple treatment, 0.16 mM SY): 39.78 * %
- Survival ([1]; simple treatment, 0.32 mM SY): 42.67 * %
- Survival ([1]; simple treatment, 0.63 mM SY): 31.11 * %
- Survival ([1]; simple treatment, 1.26 mM SY): 58.22 * %
- Diagnosis, Small Single Spots 1–2 Cells m = 2 [2, 4]: −
- Diagnosis, Total Spots m = 2 [2, 4]: −
- Mutation rate, Large Single Spots >2 Cells m = 5 [2, 4]: 0 spots/wing
- Mutation rate, Small Single Spots 1–2 Cells m = 2 [2, 4]: 0.23 (5) spots/wing
- Mutation rate, Total Spots m = 2 [2, 4]: 0.23 (5) spots/wing
- Mutation rate, Twin Spots m = 5 [2, 4]: 0 spots/wing
- Diagnosis, Small Single Spots 1–2 Cells m = 2 [2, 5]: −
- Diagnosis, Total Spots m = 2 [2, 5]: −
- Mutation rate, Large Single Spots >2 Cells m = 5 [2, 5]: 0 spots/wing
- Mutation rate, Small Single Spots 1–2 Cells m = 2 [2, 5]: 0.30 (3) spots/wing
- Mutation rate, Total Spots m = 2 [2, 5]: 0.30 (3) spots/wing
- Mutation rate, Twin Spots m = 5 [2, 5]: 0 spots/wing
- Diagnosis, Small Single Spots 1–2 Cells m = 2 [2, 6]: −
- Diagnosis, Total Spots m = 2 [2, 6]: −
- Mutation rate, Large Single Spots >2 Cells m = 5 [2, 6]: 0 spots/wing
- Mutation rate, Small Single Spots 1–2 Cells m = 2 [2, 6]: 0.28 (9) spots/wing
- Mutation rate, Total Spots m = 2 [2, 6]: 0.28 (9) spots/wing
- Mutation rate, Twin Spots m = 5 [2, 6]: 0 spots/wing
- Diagnosis, Small Single Spots 1–2 Cells m = 2 [2, 7]: −
- Diagnosis, Total Spots m = 2 [2, 7]: −
- Mutation rate, Large Single Spots >2 Cells m = 5 [2, 7]: 0 spots/wing
- Mutation rate, Small Single Spots 1–2 Cells m = 2 [2, 7]: 0.32 (7) spots/wing
- Mutation rate, Total Spots m = 2 [2, 7]: 0.32 (7) spots/wing
- Mutation rate, Twin Spots m = 5 [2, 7]: 0 spots/wing
- Effect on HL-60 growth [3]: did not affect HL-60 growth
